Assay results published in patent publication US8993574B2, “Pyrrole antifungal agents” (F2G Ltd, priority 2008, dated 2015).
Converted amounts (≈) assume the structure as drawn.

Experiments:
Assay type in all cases: cell-based
[1] = system: Aspergillus flavus; test: MIC, RPMI medium; settings: MIC banded into grades; for MIC: Aspergillus flavus, read-out: MIC grade, A. flavus
In short: (§1)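 Minimum inhibitory concentrations were determined in glucose-supplemented (2%) RPMI buffered to pH 7.0 with 0.135 M MOPS. Wells held 1−2×10^4 cfu/mL and compound from 50 to 0.05 mg/L, incubated 24-48 h at 35° C, with >80% growth reduction by OD 485 nm as endpoint.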

[2] = system: Aspergillus niger; test: MIC, RPMI medium; settings: MIC banded into grades; for MIC: Aspergillus niger, read-out: MIC grade, A. niger
In short: as §1

[3] = system: Aspergillus fumigatus AF293; test: MIC, RPMI medium; settings: for MIC: Aspergillus fumigatus, AF293, MIC banded into grades, read-out: MIC grade, A. fumigatus
In short: as §1

[4] = system: Aspergillus terreus AT49; test: MIC, RPMI medium; settings: for MIC: Aspergillus terreus, AT49, MIC banded into grades, read-out: MIC grade, A. terreus 49
In short: as §1

[5] = system: Aspergillus fumigatus AF210; test: MIC, RPMI medium; settings: for MIC: Aspergillus fumigatus, AF210, MIC banded into grades, read-out: MIC grade, A. fumigatus 210
In short: as §1

[6] = system: Aspergillus terreus AT4; test: MIC, RPMI medium; settings: for MIC: Aspergillus terreus, AT4, MIC banded into grades, read-out: MIC grade, A. terreus
In short: as §1

[7] = system: Aspergillus flavus; test: MIC, YAG medium; settings: 24 h at 35° C, MIC banded into grades; for MIC: Aspergillus flavus, 24 h, read-out: MIC grade, A. flavus
In short: (§2)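 Growth inhibition was measured by absorbance at 485 nm following 24 h at 35° C. Spores harvested after 5 days on Sabouraud agar served as inoculum (1−2×10^4 cfu/mL, YAG medium). The lowest drug level producing >70% inhibition was taken as MIC.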

[8] = system: Aspergillus niger; test: MIC, YAG medium; settings: 24 h at 35° C, MIC banded into grades; for MIC: Aspergillus niger, read-out: MIC grade, A. niger
In short: as §2

[9] = system: Aspergillus fumigatus AF293; test: MIC, YAG medium; settings: 24 h at 35° C, MIC banded into grades; for MIC: Aspergillus fumigatus, read-out: MIC grade, A. fumigatus
In short: as §2

[10] = system: Aspergillus terreus AT49; test: MIC, YAG medium; settings: 24 h at 35° C, MIC banded into grades; for MIC: Aspergillus terreus, read-out: MIC grade, A. terreus 49
In short: as §2

[11] = system: Aspergillus fumigatus AF210; test: MIC, YAG medium; settings: 24 h at 35° C, MIC banded into grades; for MIC: Aspergillus fumigatus, read-out: MIC grade, A. fumigatus 210
In short: as §2

[12] = system: Aspergillus terreus AT4; test: MIC, YAG medium; settings: 24 h at 35° C, MIC banded into grades; for MIC: Aspergillus terreus, read-out: MIC grade, A. terreus
In short: as §2

| MIC [1] [µg/mL] | MIC [2] [µg/mL] | MIC [3] [µg/mL] | MIC [4] [µg/mL] | MIC [5] [µg/mL] | MIC [6] [µg/mL] | MIC [7] [µg/mL] | MIC [8] [µg/mL] | MIC [9] [µg/mL] | MIC [10] [µg/mL] | MIC [11] [µg/mL] | MIC [12] [µg/mL] | Structure (SMILES) | also measured |
| --- | --- | --- | --- | --- | --- | --- | --- | --- | --- | --- | --- | --- | --- |
| < 1 | < 1 | < 1 | < 1 | < 1 | < 1 | < 1 | < 1 | < 1 | < 1 | < 1 | < 1 | Cc1cc(-c2ccccc2)c(C(=O)C(=O)Nc2ccc(N3CCCCC3)c(F)c2)n1C [Example 115, 2-(1,5-Dimethyl-3-phenyl-1H-pyrrol-2-yl)-N-(3-fluoro-4-piperidin-1-yl-phenyl)-2-oxo-acetamide] | – |
| 1 to 10 (≈ 2.71 to 27.1 µM) | 1 to 10 (≈ 2.71 to 27.1 µM) | 1 to 10 (≈ 2.71 to 27.1 µM) | < 1 | 1 to 10 (≈ 2.71 to 27.1 µM) | < 1 | < 1 | 1 to 10 (≈ 2.71 to 27.1 µM) | 1 to 10 (≈ 2.71 to 27.1 µM) | < 1 | 1 to 10 (≈ 2.71 to 27.1 µM) | < 1 | Cc1cc(-c2ccccc2)c(C(=O)C(=O)Nc2cccc3cccnc23)n1C [Example 31, 2-(1,5-Dimethyl-3-phenyl-1H-pyrrol-2-yl)-2-oxo-N-quinolin-8-yl-acetamide] | – |
| > 10 | 1 to 10 (≈ 1.77 to 17.7 µM) | 1 to 10 (≈ 1.77 to 17.7 µM) | 1 to 10 (≈ 1.77 to 17.7 µM) | 1 to 10 (≈ 1.77 to 17.7 µM) | 1 to 10 (≈ 1.77 to 17.7 µM) | 1 to 10 (≈ 1.77 to 17.7 µM) | < 1 | < 1 | < 1 | < 1 | 1 to 10 (≈ 1.77 to 17.7 µM) | CCCOCn1c(C)cc(-c2ccccc2)c1C(=O)C(=O)Nc1ccc(N2CCN(c3cc(C)cc(C)n3)CC2)cc1 [Example 139, N-{4-[4-(4,6-Dimethyl-pyridin-2-yl)-piperazin-1-yl]-phenyl}-2-(5-methyl-3-phenyl-1-propoxymethyl-1H-pyrrol-2-yl)-2-oxo-acetamide] | – |
| < 1 | 1 to 10 (≈ 1.81 to 18.1 µM) | < 1 | 1 to 10 (≈ 1.81 to 18.1 µM) | 1 to 10 (≈ 1.81 to 18.1 µM) | 1 to 10 (≈ 1.81 to 18.1 µM) | < 1 | < 1 | < 1 | < 1 | < 1 | < 1 | COCCc1cc(-c2ccccc2)c(C(=O)C(=O)Nc2ccc(N3CCN(c4cc(C)cc(C)n4)CC3)cc2)n1C [Example 129, N-{4-[4-(4,6-Dimethyl-pyridin-2-yl)-piperazin-1-yl]-phenyl}-2-[5-(2-methoxy-ethyl)-1-methyl-3-phenyl-1H-pyrrol-2-yl]-2-oxo-acetamide] | – |
| – | – | – | – | – | – | – | – | – | – | – | – | CCOCCCn1c(C)cc(-c2ccccc2)c1C(=O)C(=O)Nc1ccc(N2CCN(c3cc(C)cc(C)n3)CC2)cc1 [Example 136, N-{4-[4-(4,6-Dimethyl-pyridin-2-yl)-piperazin-1-yl]-phenyl}-2-[1-(3-ethoxy-propyl)-5-methy-3-phenyl-1H-pyrrol-2-yl]-2-oxo-acetamide] | MIC grade, A. flavus [1]: 2 (A grade of 2 represents an MIC of from 1 to 10 mg/L); MIC grade, A. niger [2]: 2 (A grade of 2 represents an MIC of from 1 to 10 mg/L); MIC grade, A. fumigatus ([3]; MIC banded into grades): 2 (A grade of 2 represents an MIC of from 1 to 10 mg/L); MIC grade, A. terreus 49 ([4]; MIC banded into grades): 2 (A grade of 2 represents an MIC of from 1 to 10 mg/L); MIC grade, A. fumigatus 210 ([5]; MIC banded into grades): 2 (A grade of 2 represents an MIC of from 1 to 10 mg/L); MIC grade, A. terreus ([6]; MIC banded into grades): 2 (A grade of 2 represents an MIC of from 1 to 10 mg/L); MIC grade, A. flavus [7]: 3 (A grade of 3 represents an MIC of less than 1 mg/L); MIC grade, A. niger [8]: 3 (A grade of 3 represents an MIC of less than 1 mg/L); MIC grade, A. fumigatus [9]: 3 (A grade of 3 represents an MIC of less than 1 mg/L); MIC grade, A. terreus 49 [10]: 3 (A grade of 3 represents an MIC of less than 1 mg/L); MIC grade, A. fumigatus 210 [11]: 3 (A grade of 3 represents an MIC of less than 1 mg/L); MIC grade, A. terreus [12]: 2 (A grade of 2 represents an MIC of from 1 to 10 mg/L) |
| < 1 | < 1 | < 1 | < 1 | < 1 | < 1 | < 1 | < 1 | < 1 | < 1 | < 1 | < 1 | Cc1cc(-c2ccccc2)c(C(=O)C(=O)Nc2ccc(-c3ncco3)cc2)n1C [Example 147, 2-(1,5-Dimethyl-3-phenyl-1H-pyrrol-2-yl)-N-(4-oxazol-2-yl-phenyl)-2-oxo-acetamide] | – |
| < 1 | < 1 | < 1 | < 1 | < 1 | < 1 | < 1 | < 1 | < 1 | < 1 | < 1 | < 1 | Cc1cc(C)nc(N2CCN(c3ccc(NC(=O)C(=O)c4c(C(C)C)cc(C)n4C)cc3)CC2)c1 [Example 14, N-{4-[4-(4,6-Dimethyl-pyridin-2-yl)-piperazin-1-yl]-phenyl}-2-(3-isopropyl-1,5-dimethyl-1H-pyrrol-2-yl)-2-oxo-acetamide] | – |
| < 1 | < 1 | < 1 | < 1 | < 1 | < 1 | < 1 | < 1 | < 1 | < 1 | < 1 | < 1 | Cc1cccc(N2CCN(c3ccc(NC(=O)C(=O)c4c(-c5ccccc5)cc(C)n4C)cc3)CC2)n1 [Example 39, 2-(1,5-Dimethyl-3-phenyl-1H-pyrrol-2-yl)-N-{4-[4-(6-methyl-pyridin-2-yl)-piperazin-1-yl]-phenyl}-2-oxo-acetamide] | – |
| < 1 | < 1 | < 1 | < 1 | < 1 | < 1 | < 1 | < 1 | < 1 | < 1 | < 1 | < 1 | Cc1cc(-c2ccccc2)c(C(=O)C(=O)Nc2ccc(N3CCN(c4ccccn4)CC3)cc2F)n1C [Example 95, 2-(1,5-Dimethyl-3-phenyl-1H-pyrrol-2-yl)-N-[2-fluoro-4-(4-pyridin-2-yl-piperazin-1-yl)-phenyl]-2-oxo-acetamide] | – |
| < 1 | < 1 | < 1 | < 1 | < 1 | < 1 | < 1 | < 1 | < 1 | < 1 | < 1 | < 1 | Cc1cc(C)nc(N2CCN(c3ccc(NC(=O)C(=O)c4c(C5CCOCC5)cc(C)n4C)cc3)CC2)c1 [Example 15, N-{4-[4-(4,6-Dimethyl-pyridin-2-yl)-piperazin-1-yl]-phenyl}-2-[1,5-dimethyl-3-(tetrahydro-pyran-4-yl)-1H-pyrrol-2-yl]-2-oxo-acetamide] | – |
| < 1 | < 1 | < 1 | < 1 | 1 to 10 (≈ 2.48 to 24.8 µM) | < 1 | < 1 | < 1 | < 1 | < 1 | < 1 | < 1 | Cc1cc(-c2ccccc2)c(C(=O)C(=O)Nc2ccc(-c3ncco3)c(F)c2)n1C [Example 148, 2-(1,5-Dimethyl-3-phenyl-1H-pyrrol-2-yl)-N-[3-fluoro-4-oxazole-2-yl-phenyl)-2-oxo-acetamide] | – |
| > 10 | > 10 | 1 to 10 (≈ 2.15 to 21.5 µM) | 1 to 10 (≈ 2.15 to 21.5 µM) | 1 to 10 (≈ 2.15 to 21.5 µM) | 1 to 10 (≈ 2.15 to 21.5 µM) | 1 to 10 (≈ 2.15 to 21.5 µM) | 1 to 10 (≈ 2.15 to 21.5 µM) | < 1 | < 1 | < 1 | < 1 | COCCn1c(C)cc(-c2ccccc2)c1C(=O)C(=O)Nc1ccc(N2CCOCC2)c(F)c1 [Example 126, N-(3-Fluoro-4-morpholin-4-yl-phenyl)-2-[1-(2-methoxy-ethyl)-5-methyl-3-phenyl-1H-pyrrol-2-yl]-2-oxo-acetamide] | – |
